Test results: US20140221390A1, “PROPHYLACTIC AND/OR THERAPEUTIC AGENT FOR NON-ALCOHOLIC STEATOHEPATITIS” (Kowa Company, Ltd., priority 2010, published 2014)
Counter-ions that a name gives are not always drawn.

Tests used:
Assay type in all cases: in vivo
KK-A^y mice = experiment: Effect in KK-Ay mice fed with MCD diet (NASH model); settings: 7 weeks
From the text: Rodent models fed with methionine-choline deficient diet (MCD diet) are widely used as NASH models (See Hebbard L, George J.: Animal models of nonalcoholic fatty liver disease Nat Rev Gastroenterol Hepatol. 2011 January; 8 (1):35-44. Epub 2010 Nov. 30.). Among them, models of KK-A^y mice are known to cause marked steatohepatitis and fibrosis (See Okumura K., Ikejima K., Kon K., Abe W., Yamashina S., Enomoto N., Takei Y. and Sato N. (2006) Exacerbation of dietary steatohepatitis and fibrosis in obese, diabetic KK-A^y mice Hepatology Research 2006 36:3 (217-228)). It is considered that the mice are excellent models to examine the drug effect on NASH.
Male KK-A^y mice (KK-A^y/TaJcl mice, 12 weeks old, were purchased from CLEA Japan, Inc.) were used for the experiment. The mice were fed with the MCD diet for 7 weeks to cause NASH.
The mice were separated into a control group, a compound A (30 mg/kg) administered group, and a compound A (200 mg/kg) administered group. The drug and feeds were mixed to feed the mice. The dosing period was 7 weeks.
The compound A and feeds were mixed to feed the mice. The mice was fed with the MCD diet, and fed with the feed mixture at the same time.
The methods were performed, in the same manner as in the case of the murine NASH-hepatoma models described in Example 2. In addition to the HE-stained specimens for observing liver tissues, Azan-stained specimens were also prepared.

[1] = system: LDL receptor-knockout mice; experiment: Effect in LDL receptor-knockout mouse NASH model (Western diet); settings: 12 weeks
From the text: An effect in LDL receptor-knockout mice fed with the Western diet which were known to develop fatty liver and hepatic inflammation, i.e., characteristic conditions of NASH (Yoshimatsu M. et al. Int J Exp Pathol., 85(6), 335-43 (2004)) was examined. In the present test, monohydrochloride of 2-[4-[2-(benzimidazol-2-ylthio)ethyl]piperazin-1-yl]-N-[2,4-bis(methylthio)-6-methyl-3-pyridyl]acetamide (hereinafter referred to as “compound A”) was used.
Male LDL receptor-knockout mice (B6.129S7-Ldlr<tm1Her>/J, Jackson Laboratories) were used for the experiment. The mice aged around 8 weeks were allowed to freely intake Teklad Custom Research Diet (TD.88137, manufactured by Harlan Teklad) as a Western diet for 12 weeks to cause them to develop NASH.
The mice were separated into a control group (hydrochloride added purified water) and a compound A (3 mg/kg, as free form) administered group so that there is no difference in the weights between the groups.
The dose was calculated by 10 mL/kg weight. Hydrochloride added purified water and each drug solution were orally administered to the control group and the compound A administered group, respectively, at an interval of at least 6 hours, once in the morning and once in the afternoon. The mice aged around 8 weeks were fed with the Western diet, and the drug solution was administered at the same time. The dosing period was 12 weeks.
After the end of administration, the mice were fasted overnight. The blood was collected from the abdominal portion of vena cava under anesthesia with pentobarbital sodium (50 mg/kg) and the plasma was fractionated. After collecting the blood, the liver was extracted and frozen for preservation. A part of the liver was frozen in ISOGEN (NIPPON GENE, CO., LTD.) and preserved to analyze the gene expression.
Total cholesterol (TC) and triglyceride (TG) in the plasma were measured using Cholesterol E Test Wako and Triglyceride E Test Wako (both manufactured by Wako Pure Chemical Industries, Ltd.), respectively. Measurement of liver lipid was performed in the following manner. Chloroform and methanol (at a ratio of 2:1) were added to the frozen and preserved liver, which was homogenized, and the resultant mixture was allowed to stand at 4° C. longer than overnight, followed by filtration. A part of the filtrate was fractionated, followed by evaporation and drying. The resultant product was dissolved in isopropanol. TC and TG concentrations were measured using Cholesterol E-Test Wako and Triglyceride E-Test Wako, respectively.
Liver gene expression analysis was performed by extracting RNA from the liver and measuring expression levels of TNF-α genes and CD11c genes in adhesion molecules belonging to an integrin family of macrophages by realtime RT-PCR. The liver was homogenized in ISOGEN to extract RNA according to the instruction manual. The concentration of RNA was measured using a spectrophotometer (ND-1000, NanoDrop Technologies, Inc.). Reverse transcription of mRNA from total RNA was performed using High Capacity cDNA Reverse Transcription Kit (Applied Biosystems) to synthesize cDNA. Gene expression analysis was performed by an intercalator method using SYBR green I or a method using Taqman Probe. Realtime RT-PCR was performed using 7900HT Fast Real-Time PCR System (Applied Biosystems). β-actin was used as an internal standard. After correction with β-actin, the expression levels of respective genes were compared with one another. The sequences of the used primers and probes are as follows: […]
The statistical work was performed using the Windows (registered trademark) version of the SAS Preclinical Package (SAS Institute Japan Inc.).

C57BL/6N-NASH mice = experiment: Effect in murine NASH-hepatoma models (C57BL/6N-NASH mice); settings: 100 mg/kg mixed in feed, 5 weeks
From the text: Murine NASH-hepatoma models (brand name: C57BL/6 N-NASH mice) developed in Stelic Institute & Co. (See Japanese Patent Application Laid-Open (JP-A) No. 2009-178143) are provided by Charles River Laboratories Japan, Inc. The murine models develop NASH by initiation of insulin resistance and feeding with a high fat diet. The murine models show changes which histologically reflect the conditions of human NASH. The fatty liver (before 6 weeks old) progresses to NASH (7 weeks old), liver cirrhosis (after 10 weeks old), and liver cancer (after 16 weeks old). Accordingly, it is said that the models are useful in research and development of therapeutic drugs for NASH (See Data of SIAM Mice C57BL/6N-NASH Model Mice (http://www.crj.co.jp/topics/pdf/69/6375030/B6N_NASH_leaflet—091019.pdf)).
Then, the effect of the compound A was examined using murine NASH-hepatoma models with a more serious condition than the knockout mice used in Example 1.
Male C57BL/6N-NASH mice (Charles River Laboratories Japan, Inc.) were used for the experiment. Streptozotocin was administered to the mice aged 1 to 2 days and they were fed with a high fat diet (D12492, Research Diet) from 4 weeks old. The mice were purchased at 6 weeks old and continuously fed with the same high fat diet (hereinafter, the mice are referred to as “C57BL/6N-NASH mice”). As a normal control group, normal mice (C57BL/6N, 6 weeks old, Charles River Laboratories Japan, Inc.) were purchased at the same time and they were fed with an ordinary diet (CE-2, CLEA Japan, Inc.) (hereinafter referred to as “normal mice”).
C57BL/6N-NASH mice were used for a control group and a compound A (100 mg/kg) administered group. The number of mice in each group was six. As normal mice (control group), 6 normal mice (C57BL/6N mice) were used.
The compound A and feeds were mixed to feed the mice. C57BL/6N-NASH mice with NASH aged 7 weeks were fed with the feed mixture. The dosing period was 5 weeks.
After the end of administration, the mice were fasted for 4 hours. The blood was collected from the abdominal portion of vena cava under anesthesia, and the plasma was fractionated. After collecting the blood, the liver was extracted. A part of the liver was frozen for preservation, and the other part was embedded in paraffin in a usual manner. Plasma lipid and plasma ALT levels were measured using an autoanalyzer (Labospect003, Hitachi, Ltd.). Measurement of liver lipid was performed in the following manner. That is, chloroform and methanol (at a ratio of 2:1) were added to a part of the frozen and preserved liver, which was homogenized, and the resultant mixture was allowed to stand at 4° C. overnight, followed by filtration. A part of the filtrate was fractionated, followed by evaporation and drying. The resultant product was dissolved in isopropanol. The concentrations of total cholesterol (TC) and triglyceride (TG) were measured using Cholesterol E-Test Wako and Triglyceride E-Test Wako, respectively. Further, paraffin sections and HE-stained specimens were produced to observe liver tissues.

Question: How did the “plasma ALT level” value (KK-A^y mice; 200 mg/kg mixed in feed, FIG. 8) turn out when `CSc1cc(C)nc(SC)c1NC(=O)CN1CCN(CCSc2nc3ccccc3[nH]2)CC1` [compound A, monohydrochloride of 2-[4-[2-(benzimidazol-2-ylthio)ethyl]piperazin-1-yl]-N-[2,4-bis(methylthio)-6-methyl-3-pyridyl]acetamide] was run?
Answer: The value was “significantly reduced”.

Question: And the plasma lipid (KK-A^y mice; 30 or 200 mg/kg mixed in feed)?
Answer: The plasma lipid was “no effect”.

Question: What about the “hepatic TC level” value (KK-A^y mice; mixed in feed, FIG. 9) of the same compound?
Answer: The value was “significantly reduced”.

Question: What about the “hepatic TG level” value (KK-A^y mice; mixed in feed, FIG. 10) of the same compound?
Answer: The value was “significantly reduced”.

Question: What about the “development of lipid-droplet deposition in the liver (HE-stained)” value (KK-A^y mice; mixed in feed, FIG. 11) of the same compound?
Answer: Its value is “inhibited”.

Question: And the “development of fibrosis in the liver (Azan-stained)” value (KK-A^y mice; mixed in feed, FIG. 12)?
Answer: The value was “inhibited”.

Question: What about the “total cholesterol (TC) in the plasma” value ([1]; 3 mg/kg as free form, oral, twice daily, Western diet, FIG. 1A) of the same compound?
Answer: The value was “no significant effect”.

Question: What about the “triglyceride (TG) in the plasma” value ([1]; 3 mg/kg as free form, oral, twice daily, Western diet, FIG. 1B) of the same compound?
Answer: The value was “no significant effect”.

Question: What about the “total cholesterol (TC) in the liver” value ([1]; 3 mg/kg as free form, oral, twice daily, Western diet, FIG. 2A) of the same compound?
Answer: Its value is “significant decrease”.

Question: What about the “triglyceride (TG) in the liver” value ([1]; 3 mg/kg as free form, oral, twice daily, Western diet, FIG. 2B) of the same compound?
Answer: Its value is “significant decrease”.

Question: What about the “macrophage CD11c gene expression in the liver” value ([1]; 3 mg/kg, realtime RT-PCR, corrected with β-actin, FIG. 3A) of the same compound?
Answer: The value was “significant decreases”.

Question: And the “inflammatory cytokine TNF-α expression in the liver” value ([1]; 3 mg/kg, realtime RT-PCR, corrected with β-actin, FIG. 3B)?
Answer: Its value is “significant decreases”.

Question: What about the plasma lipid (C57BL/6N-NASH mice; from 7 weeks old) of the same compound?
Answer: Its plasma lipid is “no effect”.

Question: What about the “plasma ALT level” value (C57BL/6N-NASH mice; vs NASH control group, FIG. 4) of the same compound?
Answer: The value was “reduced”.

Question: And the “hepatic TC level” value (C57BL/6N-NASH mice; vs NASH control group, FIG. 5)?
Answer: The value was “reduced”.

Question: What about the “hepatic TG level” value (C57BL/6N-NASH mice; vs NASH control group, FIG. 6) of the same compound?
Answer: The value was “reduced”.

Question: What about the “development of lipid-droplet deposition in liver (HE-stained)” value (C57BL/6N-NASH mice; FIG. 7) of the same compound?
Answer: The value was “inhibited”.
